Laboratory results as given in ChEMBL document CHEMBL2028040, “Malaria Box”.

Experiments:
[1] = tested on: Trypanosoma brucei rhodesiense; assay: MMV: Inhibition of Trypanosoma brucei rhodesiense (STIB 900) (HAT in vitro).; assay type: functional, organism-based
[2] = tested on: Trypanosoma brucei brucei; assay: MMV: Inhibition of Trypanosoma brucei brucei (Squib 427) (HAT in vitro).; assay type: functional, organism-based
Plasmodium falciparum [3] = assay: MMV: Inhibition of Plasmodium falciparum 3D7 (EC50).; assay type: functional, organism-based
Plasmodium falciparum [4] = assay: MMV: Inhibition of Plasmodium falciparum 3D7 at 2uM compound concentration.; assay type: functional
Trypanosoma cruzi = assay: MMV: Inhibition of Trypanosoma cruzi (Tulahuen C4 LacZ) (Chagas in vitro).; assay type: functional, organism-based
Leishmania infantum = assay: MMV: Inhibition of Leishmania infantum (MHOM/MA/BE/67) in vitro.; assay type: functional, organism-based
[5] = MMV: Cytotoxicity against human fibroblasts (MRC-5) cells.; settings: MRC-5 cells (human fibroblasts)

Compound	IC50 [1] [µM]	IC50 [2] [µM]	EC50 (Plasmodium falciparum [3]) [µM]	inhibition at 2 µM (Plasmodium falciparum [4]) [%]	IC50 (Trypanosoma cruzi) [µM]	IC50 (Leishmania infantum) [µM]	IC50 [5] [µM]
CN1CCN(c2c3c(c(C#N)c4nc5ccccc5n24)CCC3)CC1	> 32	> 32	4	42	> 32	> 32	> 32
CCOc1ccc2nc(C)cc(Nc3ccc(N(C)C)cc3)c2c1	3.49	3.73	4	94	13.7	4	18.6
